The results in this text go back to PubChem BioAssay (NCI).

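Assay format: 96-well plates, 48-hour exposure. TGI is the concentration that stops growth completely.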

Some test systems named below: U251 CNS; MOLT-4 leukemia; MCF7 breast; NCI-H226 lung; A549 NSCLC; M14 melanoma; DU-145 prostate; HS 578T breast.
What all share (assay): DTP human tumour cell line panel, 48 h

In general, TGI refers to the concentration at which net growth stops. Read a high TGI as less potent growth arrest. Regarding `O=C(CCCC(=O)N1CC(CCl)c2ccc([N+](=O)[O-])cc21)N1CC(CCl)c2ccc([N+](=O)[O-])cc21` (centres undefined), the TGI in the test on U251 CNS is above 100 µM; in the test with MOLT-4 leukemia, above 100 µM; in the test on MCF7 breast, above 100 µM; with NCI-H226 lung, above 100 µM; in the test on A549 NSCLC it was 92.4 µM; with M14 melanoma it was above 100 µM. This molecule also displayed a TGI with DU-145 prostate above 100 µM.
Consider `CSc1n[n+](C)cc(N)c1N`, for which the TGI in the test on U251 CNS, in the test with MOLT-4 leukemia, in the test with MCF7 breast, with NCI-H226 lung, in the test with A549 NSCLC and in the test with M14 melanoma was above 100 µM each time.
As for `O=S1(=O)c2ccccc2N2CCCc3cc(Cl)cc1c32`, the TGI is above 100 µM in the test on MOLT-4 leukemia; above 100 µM with MCF7 breast; 84.7 µM in the test with HS 578T breast; above 100 µM with NCI-H226 lung; above 100 µM with A549 NSCLC; above 100 µM in the test on M14 melanoma. The same molecule registered a TGI in the test on DU-145 prostate above 100 µM.
Consider `O=C(c1cccs1)N(C(=O)N1CCC(c2ccccc2)CC1)c1ccccc1`, for which the TGI with U251 CNS, in the test on MOLT-4 leukemia, in the test on MCF7 breast, in the test with HS 578T breast, with NCI-H226 lung and in the test with M14 melanoma was above 100 µM in each case. In the test with DU-145 prostate, this molecule displayed a TGI above 100 µM.
Take `CN(C)c1ccc(/C=N/NC2=N/C(=C\c3ccco3)C(=O)N2)cc1`: the TGI in the test on U251 CNS, in the test with MOLT-4 leukemia, in the test with HS 578T breast, in the test with NCI-H226 lung, in the test with A549 NSCLC and in the test on M14 melanoma was above 100 µM each time. In the test on DU-145 prostate, this molecule yielded a TGI above 100 µM.
Regarding `CC(Nc1cc(Cl)cc(Cl)c1)c1ccncc1` (centres undefined), the TGI with U251 CNS is 35.2 µM; with MOLT-4 leukemia it was 69.1 µM; with MCF7 breast it was 34.3 µM; in the test with HS 578T breast, above 100 µM; in the test with NCI-H226 lung, 25 µM; in the test with A549 NSCLC, above 100 µM. This molecule also came in with a concentration for total growth inhibition (TGI) in the test with M14 melanoma of 33.4 µM.
Turning to `CCCCCC(C)C[C@H]1CO[C@H](c2ccc[nH]2)N[C@H]1C(=O)OC` (some centres undefined), the TGI in the test on U251 CNS, in the test with MOLT-4 leukemia, with MCF7 breast, with HS 578T breast, with A549 NSCLC and with M14 melanoma was above 100 µM each time. This molecule also showed a total growth inhibition concentration (TGI) with DU-145 prostate above 100 µM.
In the case of `CO[P@]1(=O)O[C@@H](c2ccccc2)[C@H](O)[C@]1(O)c1ccccc1`, the total growth inhibition concentration (TGI) in the test on U251 CNS, with MCF7 breast, in the test on HS 578T breast, with NCI-H226 lung, with A549 NSCLC and in the test with M14 melanoma was above 100 µM in each case. Moreover, in the test with DU-145 prostate, the TGI is above 100 µM.
On to `COc1ccc(CNc2nc3ccccc3nc2-c2cccs2)cc1`, for which the TGI in the test with U251 CNS is above 100 µM; in the test with MOLT-4 leukemia, 45.4 µM; with MCF7 breast it was above 100 µM; in the test with HS 578T breast, 99.8 µM; with NCI-H226 lung, above 100 µM; in the test on A549 NSCLC, above 100 µM. This molecule returned a TGI in the test on DU-145 prostate above 100 µM.
On to `CCCCCCCCCC[C@@H](O)[C@@H]1CC[C@@H]([C@@H]2CC[C@@H]([C@@H](O)CCCCCCCCCCC(O)CC3=CC(C)OC3=O)O2)O1` (some centres undefined), for which the total growth inhibition concentration (TGI) in the test with MOLT-4 leukemia was above 10 µM; with MCF7 breast it was above 10 µM; in the test with HS 578T breast it was above 10 µM; in the test with NCI-H226 lung, 6.84 µM; with A549 NSCLC it was above 10 µM; in the test with M14 melanoma, above 10 µM. In the test with DU-145 prostate, the TGI was above 10 µM.
On to `CC(=O)C(=C(I)I)c1ccccc1`, for which the TGI in the test on U251 CNS came out at 35.7 µM; in the test with MOLT-4 leukemia, 43.2 µM; in the test with MCF7 breast it was 46.8 µM; with NCI-H226 lung, 27.3 µM; in the test on A549 NSCLC, 56.2 µM; in the test on M14 melanoma, 31.6 µM. The molecule further displayed a TGI in the test with DU-145 prostate of 60.4 µM.
With `O=C1CSC2(CCN(CCCN3c4ccccc4Sc4ccc(Cl)cc43)CC2)N1`, the total growth inhibition concentration (TGI) with U251 CNS came to 20.6 µM; with MCF7 breast it was 18.5 µM; in the test with HS 578T breast it was 51.9 µM; in the test with NCI-H226 lung, 40.7 µM; with A549 NSCLC, 23.4 µM; in the test on M14 melanoma it was 20.6 µM. This molecule also yielded a TGI with DU-145 prostate of 24.2 µM.
For `CC(=O)Nc1ccc(Nc2nc(=O)[nH]c(=O)[nH]2)cc1`, the total growth inhibition concentration (TGI) in the test with U251 CNS, in the test with MCF7 breast, in the test with HS 578T breast, in the test on NCI-H226 lung, in the test with A549 NSCLC and in the test on M14 melanoma was above 100 µM each time. The molecule also returned a concentration for total growth inhibition (TGI) in the test on DU-145 prostate above 100 µM.
Consider `CN(C)Cc1cc(C(=O)O)cc(CN(C)C)c1O`, for which the TGI in the test with U251 CNS, in the test with MCF7 breast, in the test with HS 578T breast, with NCI-H226 lung, in the test with A549 NSCLC and in the test on M14 melanoma was above 100 µM throughout. The TGI with DU-145 prostate was above 100 µM.
`CCCCNC(=S)Nc1nc(C(=O)NNS(=O)(=O)c2ccccc2)cs1`: the TGI in the test with U251 CNS, in the test on MOLT-4 leukemia, in the test on MCF7 breast, in the test on A549 NSCLC, in the test on M14 melanoma and with DU-145 prostate was above 100 µM in each case.
On to `Clc1ccc(OCc2nnc(CCCCCCCCc3nnc(COc4ccc(Cl)cc4Cl)o3)o2)c(Cl)c1`, for which the total growth inhibition concentration (TGI) in the test on U251 CNS, with MOLT-4 leukemia, with MCF7 breast, with NCI-H226 lung, with A549 NSCLC and with M14 melanoma was above 100 µM throughout. In the test on DU-145 prostate, the TGI was above 100 µM.
In the case of `COc1ccc(-c2cc(-c3ccc(Nc4ccnc5cc(Cl)ccc45)cc3)nc(N)c2C#N)c2ccccc12`, the TGI in the test on U251 CNS, in the test on MOLT-4 leukemia, with MCF7 breast, with NCI-H226 lung, in the test with A549 NSCLC and with M14 melanoma was above 100 µM each time. The TGI in the test on DU-145 prostate is above 100 µM.
For `COc1cc2c(cc1OCCCC(=O)Nc1cc(C(=O)Nc3cc(C(=O)NCCCN(C)C)n(C)n3)n(C)n1)N=CC1CCCN1C2=O` (centres undefined), the total growth inhibition concentration (TGI) with U251 CNS was 39.5 µM; in the test with MOLT-4 leukemia it was 18.9 µM; with MCF7 breast, 29.5 µM; in the test with NCI-H226 lung, above 100 µM; with A549 NSCLC, above 100 µM; in the test on M14 melanoma, 33.8 µM. This molecule also yielded a total growth inhibition concentration (TGI) in the test with DU-145 prostate of 32.2 µM.
